Laboratory results reported in ChEMBL document CHEMBL5316341, “The Development and Design Strategy of Leucine-Rich Repeat Kinase 2 Inhibitors: Promising Therapeutic Agents for Parkinson's Disease” (J Med Chem, 2023).
One block for each compound: values may come before it.

Key:
[1] = target: Leucine-rich repeat serine/threonine-protein kinase 2 (Homo sapiens, UniProt Q5S007); experiment: Inhibition of wild-type LRRK2 (unknown origin) by adapta assay
[2] = target: Leucine-rich repeat serine/threonine-protein kinase 2 (Homo sapiens, UniProt Q5S007, G2019S); experiment: Inhibition of LRRK2 G2019S mutant (unknown origin) by adapta assay
[3] = target: T1, von Hippel-Lindau disease tumor suppressor/Leucine-rich repeat serine/threonine-protein kinase 2 (Mus musculus, UniProt P40338+Q5S006, R1441C); experiment: PROTAC activity at VHL/LRRK2 R1441C mutant in mouse embryonic fibroblast cells assessed as induction of LRRK2 degradation; format: cell-based, MEF
T1 sequence (P40338 whole entry, stated change not applied): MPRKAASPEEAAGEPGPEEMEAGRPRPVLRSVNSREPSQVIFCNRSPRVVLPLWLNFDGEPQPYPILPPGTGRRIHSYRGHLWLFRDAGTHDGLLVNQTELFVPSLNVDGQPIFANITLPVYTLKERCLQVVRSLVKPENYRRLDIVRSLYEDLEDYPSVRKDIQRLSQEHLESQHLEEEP
T1 sequence (Q5S006 whole entry R1441C, stated change not applied): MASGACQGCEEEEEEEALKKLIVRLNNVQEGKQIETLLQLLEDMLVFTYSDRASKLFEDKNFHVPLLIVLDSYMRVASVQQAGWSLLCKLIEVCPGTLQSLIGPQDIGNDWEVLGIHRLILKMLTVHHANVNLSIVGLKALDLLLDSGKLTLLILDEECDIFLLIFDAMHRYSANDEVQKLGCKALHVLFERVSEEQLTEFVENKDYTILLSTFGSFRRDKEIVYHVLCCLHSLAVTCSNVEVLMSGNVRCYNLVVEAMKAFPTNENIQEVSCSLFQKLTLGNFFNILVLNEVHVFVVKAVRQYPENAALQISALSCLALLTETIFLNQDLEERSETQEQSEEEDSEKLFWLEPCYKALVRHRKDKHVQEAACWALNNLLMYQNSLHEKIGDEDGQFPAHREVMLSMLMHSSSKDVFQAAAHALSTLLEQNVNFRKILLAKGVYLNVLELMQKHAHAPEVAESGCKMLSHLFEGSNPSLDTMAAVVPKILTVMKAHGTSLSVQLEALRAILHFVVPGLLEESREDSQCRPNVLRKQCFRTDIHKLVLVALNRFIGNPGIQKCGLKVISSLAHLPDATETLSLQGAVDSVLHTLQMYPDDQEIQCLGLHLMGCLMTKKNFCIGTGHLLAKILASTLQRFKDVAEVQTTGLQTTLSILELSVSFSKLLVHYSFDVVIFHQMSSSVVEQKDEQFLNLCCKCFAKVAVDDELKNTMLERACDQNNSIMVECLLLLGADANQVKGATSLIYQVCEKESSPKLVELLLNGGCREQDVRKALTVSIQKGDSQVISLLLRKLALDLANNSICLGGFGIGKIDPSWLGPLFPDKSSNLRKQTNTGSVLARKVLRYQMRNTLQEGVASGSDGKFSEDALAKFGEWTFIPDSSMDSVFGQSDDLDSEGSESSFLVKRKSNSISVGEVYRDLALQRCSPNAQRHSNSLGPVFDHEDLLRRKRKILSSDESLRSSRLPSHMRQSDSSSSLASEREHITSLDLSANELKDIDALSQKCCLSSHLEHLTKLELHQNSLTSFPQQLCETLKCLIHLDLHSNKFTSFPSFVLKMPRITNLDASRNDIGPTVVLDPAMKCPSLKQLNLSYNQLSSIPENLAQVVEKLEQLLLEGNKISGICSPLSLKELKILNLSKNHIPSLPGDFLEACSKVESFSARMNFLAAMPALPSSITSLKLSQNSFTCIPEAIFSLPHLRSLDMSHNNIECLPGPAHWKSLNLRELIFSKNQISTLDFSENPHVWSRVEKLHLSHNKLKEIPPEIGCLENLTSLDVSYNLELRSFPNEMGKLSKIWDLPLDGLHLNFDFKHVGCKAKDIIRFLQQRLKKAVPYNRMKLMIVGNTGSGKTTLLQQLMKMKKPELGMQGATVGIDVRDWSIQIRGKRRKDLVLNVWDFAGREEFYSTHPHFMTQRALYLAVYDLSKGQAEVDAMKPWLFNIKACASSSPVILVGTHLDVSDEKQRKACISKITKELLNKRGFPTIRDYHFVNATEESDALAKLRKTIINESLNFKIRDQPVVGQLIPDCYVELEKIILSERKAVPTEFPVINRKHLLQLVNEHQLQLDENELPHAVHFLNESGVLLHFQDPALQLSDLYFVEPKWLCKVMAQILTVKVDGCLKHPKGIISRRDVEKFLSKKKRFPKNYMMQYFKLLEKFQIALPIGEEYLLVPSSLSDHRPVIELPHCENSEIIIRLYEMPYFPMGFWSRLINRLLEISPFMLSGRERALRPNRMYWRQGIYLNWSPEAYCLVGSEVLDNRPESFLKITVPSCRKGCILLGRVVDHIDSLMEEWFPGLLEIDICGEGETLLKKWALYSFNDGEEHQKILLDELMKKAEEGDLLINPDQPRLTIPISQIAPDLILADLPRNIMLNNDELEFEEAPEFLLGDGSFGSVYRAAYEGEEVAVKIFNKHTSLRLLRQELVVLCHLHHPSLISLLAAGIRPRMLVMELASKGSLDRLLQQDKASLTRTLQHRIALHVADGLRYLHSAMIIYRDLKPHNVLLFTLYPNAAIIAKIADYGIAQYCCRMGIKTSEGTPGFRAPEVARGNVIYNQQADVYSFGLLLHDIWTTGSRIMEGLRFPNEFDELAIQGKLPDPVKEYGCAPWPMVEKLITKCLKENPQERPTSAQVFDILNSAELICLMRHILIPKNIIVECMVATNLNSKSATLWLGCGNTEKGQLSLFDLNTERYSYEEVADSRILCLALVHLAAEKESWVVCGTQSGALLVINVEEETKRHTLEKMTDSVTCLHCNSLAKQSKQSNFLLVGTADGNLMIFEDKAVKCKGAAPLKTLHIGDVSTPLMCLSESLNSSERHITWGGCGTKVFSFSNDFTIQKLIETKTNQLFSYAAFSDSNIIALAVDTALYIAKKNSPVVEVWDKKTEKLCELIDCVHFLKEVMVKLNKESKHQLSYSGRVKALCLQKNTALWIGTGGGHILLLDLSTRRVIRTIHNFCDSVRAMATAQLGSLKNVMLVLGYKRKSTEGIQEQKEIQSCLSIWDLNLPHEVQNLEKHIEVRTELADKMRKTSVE

[4] = target: T1, von Hippel-Lindau disease tumor suppressor/Leucine-rich repeat serine/threonine-protein kinase 2; experiment: PROTAC activity at VHL/LRRK2 R1441C mutant in mouse bone marrow derived macrophages assessed as induction of LRRK2 degradation; format: cell-based, BMDM
[5] = target: T1, von Hippel-Lindau disease tumor suppressor/Leucine-rich repeat serine/threonine-protein kinase 2; experiment: PROTAC activity at VHL/LRRK2 R1441C mutant in mouse PBMC cells assessed as induction of LRRK2 degradation; format: cell-based
[6] = system: von Hippel-Lindau disease tumor suppressor/Leucine-rich repeat serine/threonine-protein kinase 2 (Mus musculus), Q5S006+P40338 [R1441C]; experiment: PROTAC activity at VHL/LRRK2 R1441C mutant in mouse embryonic fibroblast cells assessed as induction of LRRK2 degradation by measuring maximal efficacy relative to control; format: cell-based; settings: MEF
[7] = system: von Hippel-Lindau disease tumor suppressor/Leucine-rich repeat serine/threonine-protein kinase 2 (Mus musculus), Q5S006+P40338 [R1441C]; experiment: PROTAC activity at VHL/LRRK2 R1441C mutant in mouse bone marrow derived macrophages assessed as induction of LRRK2 degradation by measuring maximal efficacy relative to control; format: cell-based; settings: BMDM
[8] = system: von Hippel-Lindau disease tumor suppressor/Leucine-rich repeat serine/threonine-protein kinase 2 (Mus musculus), Q5S006+P40338 [R1441C]; experiment: PROTAC activity at VHL/LRRK2 R1441C mutant in mouse PBMC cells assessed as induction of LRRK2 degradation by measuring maximal efficacy relative to control; format: cell-based
[9] = system: von Hippel-Lindau disease tumor suppressor/Leucine-rich repeat serine/threonine-protein kinase 2 (Mus musculus), Q5S006+P40338 [R1441C]; experiment: PROTAC activity at VHL/LRRK2 R1441C mutant in mouse embryonic fibroblast cells assessed as induction of LRRK2 degradation by measuring half-life; format: cell-based; settings: MEF
[10] = system: von Hippel-Lindau disease tumor suppressor/Leucine-rich repeat serine/threonine-protein kinase 2 (Mus musculus), Q5S006+P40338 [R1441C]; experiment: PROTAC activity at VHL/LRRK2 R1441C mutant in mouse bone marrow derived macrophages assessed as induction of LRRK2 degradation by measuring half-life; format: cell-based; settings: BMDM
[11] = system: von Hippel-Lindau disease tumor suppressor/Leucine-rich repeat serine/threonine-protein kinase 2 (Mus musculus), Q5S006+P40338 [R1441C]; experiment: PROTAC activity at VHL/LRRK2 R1441C mutant in mouse PBMC cells assessed as induction of LRRK2 degradation by measuring half-life; format: cell-based
[12] = Oral bioavailability in mouse; format: ADME, organism-based; settings: in vivo
[13] = target: T2, Protein cereblon/Leucine-rich repeat serine/threonine-protein kinase 2 (Homo sapiens, UniProt Q5S007+Q96SW2); experiment: PROTAC activity at CRBN/wild type HiBit tagged-LRRK in HEK293 cells assessed as LRRK2 degradation by Nano-Glo dual-luciferase reporter assay; format: cell-based
[14] = target: T2, Protein cereblon/Leucine-rich repeat serine/threonine-protein kinase 2; experiment: PROTAC activity at CRBN/wild type HiBit tagged-LRRK2 in HEK293 cells assessed as LRRK2 degradation by measuring maximum degradation by Nano-Glo dual-luciferase reporter assay relative to control; format: cell-based
[15] = target: Protein cereblon/Leucine-rich repeat serine/threonine-protein kinase 2 (Homo sapiens, UniProt Q5S007+Q96SW2, G2019S); experiment: PROTAC activity at CRBN/HiBit tagged-LRRK2 G2019S mutant in HEK293 cells assessed as LRRK2 degradation by Nano-Glo dual-luciferase reporter assay; format: cell-based
[16] = system: Protein cereblon/Leucine-rich repeat serine/threonine-protein kinase 2 (Homo sapiens), Q5S007+Q96SW2 [G2019S]; experiment: PROTAC activity at CRBN/LRRK2 G2019S mutant in HEK293 cells assessed as LRRK2 degradation by measuring maximum degradation by Nano-Glo dual-luciferase reporter assay relative to control; format: cell-based

- IC50 [1]: 1.46 nM
- IC50 [2]: 0.98 nM
SMILES: CC1(Oc2ccc3[nH]nc(-c4cc(N5CCN(CCOCCOCCOCCOc6ccc7c(c6)C(=O)N(C6CCC(=O)NC6=O)C7=O)CC5)ncn4)c3c2)CC1 (stereo unspecified)

SMILES: CNc1nc(Nc2ccc(C(=O)N3CCN(C[C@H]4CC[C@H](CSC(C)(C)[C@H](NC(=O)C5(F)CC5)C(=O)N5C[C@@H](O)C[C@@H]5C(=O)NCc5ccc(-c6scnc6C)cc5)CC4)CC3)cc2OC)ncc1Cl
- EC50 [3]: 15 nM
- EC50 [4]: 15 nM
- EC50 [5]: 15 nM
- Emax [6]: 82%
- Emax [7]: 82%
- Emax [8]: 82%
- T1/2 [9]: 36 min
- T1/2 [10]: 36 min
- T1/2 [11]: 36 min
- bioavailability [12]: 15%

SMILES: C[C@H]1CN(c2cc(-c3n[nH]c4ccc(OC5(C)CC5)cc34)ccn2)CCN1CCOCCOCCOCCOc1ccc2c(c1)C(=O)N(C1CCC(=O)NC1=O)C2=O (stereo partly specified)
- EC50 [13]: < 10 nM
- Emax [14]: > 70%
- EC50 [15]: < 10 nM
- Emax [16]: > 70%
